Patent US20190255175A1, “ACTIVATION OF TRPA1+ NOCICEPTORS IN THE VAGUS NERVE ATTENUATES SYSTEMIC INFLAMMATION” (THE FEINSTEIN INSTITUTE FOR MEDICAL RESEARCH, priority 2018, published 2019)

Tests used:
[1] = Thermoregulation: intraperitoneal body temperature recorded by implant after IL-1β injection; assay type: in vivo, mice; conditions: for Change in ip body temperature: WT mice
Protocol: FIG. 5A-5B. […] Body temperature was recorded using an ETA-F10 temperature implant (DSI New Brighton, Minn.) that was placed in the peritoneal cavity and fixed to the peritoneal wall. After recording the baseline temperature for 1 hr, rmIL-1β (5.0 μg/kg) was administered by i.p injection. Body temperature of wildtype (n=4) and TRPA1 KO mice (n=4) was recorded for 5 hours post injection. ****p<0.0001. B) IL-1β induces a dose-dependent hypothermic response in mice. After recording the baseline temperature for 1 hr, rmIL-1β (0 [n=4], 0.5 [n=4], 50.0 [n=3] μg/kg) was administered by i.p injection. Body temperature was recorded for 5 hours post injection.
Mice were anesthetized with 2.5% isoflurane with an oxygen flow of 1 L/min. Once anesthetized, the mouse was moved to a supine position with the isoflurane maintained at 2.0% during surgery. A midline incision was made above the peritoneal cavity, with a ETA-F10 temperature implant (DSI New Brighton, Minn.) placed in the peritoneal cavity and tacked to the peritoneal wall. The cavity was then closed, and the mouse monitored every day for 3 days. The mouse was allowed to recover for a minimum of five days prior to any manipulation. The mice were placed on the DIS with baseline ip body temperature recorded for 1 hour prior to IL-1β or saline injection. The ip body temperature recording then continued for 5 hours post injection.
Thermoregulation, specifically in cold sensing, is another major function of the TRPA1 ion channel. When housed at approximately 23° C., WT mice injected with murine IL-1β (5 μg/kg) have significant decrease in body temperature (t-test, p<0.0001) peaking at a temperature change of −2.3±0.15° C., while TRPA1 KO mice have no significant change in body temperature after IL-1β (5 μg/kg) peaking at 0.18±0.40° C. (FIG. 5A). […] However, there was no significant change in ip body temperature after saline ([…]) (t-test, p>0.05) (FIG. 5B). This indicates a previously unknown mechanism of IL-1β fever singling through TRPA1+ fibers of the vagus nerve, linking TRPA1's role in both thermoregulation as well as afferent inflammatory signaling through the vague nerve.

[2] = IL-1β induced inflammation: serum and spleen cytokines; assay type: in vivo; conditions: TRPA1 KO mice; after IL-1β administration; 3 hours
Protocol: Mice were injected with 3.2 μg/kg IL-1β ip or saline. Three hours later the mice were euthanized, and blood, spleen, and two brain regions collected. Blood was collected by cardiac puncture. To obtain serum from these samples, blood was allowed to clot for approximately 45 min to 1 h. The blood was then spun at 5,000 rpm for 10 min and 10,000 For 2 min. Supernatants (serum) were collected and stored at −20° C. prior to use. The spleen was homogenized using a bullet blender homogenizer (Next Advance, Averill Park, N.Y., USA) and the recommended bead homogenization kit and protocol in a 4° C. walk-in refrigerator. The homogenized sample was then spun down at 15,000 rpm for 10 min with the supernatants collected and stored at −20° C. Splenic protein level was measured using the Bradford assay. IL-6, IL-1β, KC/Gro (CXCL1), and IL-1β for both serum and spleen were measured on a custom mouse inflammatory electrochemiluminescent kit (Meso Scale Discovery, Gaithersburg, Md., USA) according to manufacturer's recommendations. The brain stem region was collected on ice, using a binocular dissection microscope and placed in the same tube. Brain regions were snap frozen on dry ice and transferred to storage at −80° C.
The serum and splenic tissue of these mice were then analyzed for known downstream signaling molecules of IL-1β, IL-6, IL-1β and KC/GRO (CXCL1).

With “IL-1β: interleukin 1β; recombinant human IL-1β for nerve recordings, murine (rmIL-1β) for thermoregulation” the “Peak body temperature change” value ([1]; TRPA1 KO mice, IL-1β 5 μg/kg ip) was 0.18±0.40 °C, the “Peak body temperature change” value ([1]; WT mice housed at approximately 23° C., murine IL-1β 5 μg/kg ip) was −2.3±0.15 °C and the “Change in ip body temperature” value ([1]; IL-1β 0.5 μg/kg) was “significant decreases”. For the same substance, the “Change in ip body temperature” value ([1]; IL-1β 50 μg/kg) was “significant decreases” and the “IL-6, IL-1β and KC/GRO (CXCL1) in serum and spleen” value [2] was “further increases”.
